Data reported in patent US12655116B2, “Substituted isophthalic acid diamides” (Bayer Aktiengesellschaft, priority 2020, dated 2026).

Key:
VERPE = assay: Pre-emergence herbicidal action against VERPE; type: in vivo, Veronica persica
Text: (§1) Seeds of monocotyledonous and dicotyledonous weed plants and crop plants are laid out in sandy loam soil in wood-fiber pots and covered with soil. The compounds of the invention, formulated in the form of wettable powders (WP) or as emulsion concentrates (EC), are then applied to the surface of the covering soil in the form of an aqueous suspension or emulsion at a water application rate equivalent to 600 to 800 l/ha, with addition of 0.2% wetting agent. After the treatment, the pots are placed in a greenhouse and kept under good growth conditions for the trial plants. The damage to the test plants is scored visually after a test period of 3 weeks by comparison with untreated controls (herbicidal activity in percent (%): 100% activity=the plants have died, 0% activity=like control plants). […] The tables below illustrate, in an illustrative manner, the post-emergence herbicidal action of the compounds of the invention, the herbicidal activity being stated in percent.

ABUTH [1] = assay: Pre-emergence herbicidal action against ABUTH; type: in vivo, Abutilon theophrasti; conditions: for Pre-emergence action against ABUTH (herbicidal activity): 80 g/ha, scored visually after 3 weeks vs untreated controls (100% = plants have died, 0% = like control plants); for Pre-emergence action against ABUTH (herbicidal activity in percent): dosage 20 g/ha, scored visually after 3 weeks vs untreated controls, 100% = plants have died, 0% = like control plants
Outline: (§2)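 Herbicidal effect was assessed 3 weeks after treatment by visual comparison with untreated controls, 100% denoting dead plants. Aqueous WP or EC preparations had been applied at 600 to 800 l/ha with 0.2% wetting agent to the soil covering freshly sown seeds.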

AMARE [2] = assay: Pre-emergence herbicidal action against AMARE; type: in vivo, Amaranthus retroflexus
Outline: as §2

AMARE [3] = assay: Post-emergence herbicidal action against AMARE; type: in vivo, Amaranthus retroflexus; conditions: 20 g/ha, visual assessment about 3 weeks after treatment, 100% = plants have died, 0% = like control plants
Method: (§3) Seeds of monocotyledonous and dicotyledonous weed and crop plants are laid out in sandy loam soil in wood-fiber pots, covered with soil and cultivated in a greenhouse under good growth conditions. 2 to 3 weeks after sowing, the test plants are treated at the one-leaf stage. The compounds of the invention, formulated in the form of wettable powders (WP) or as emulsion concentrates (EC), are then sprayed onto the green parts of the plants in the form of an aqueous suspension or emulsion at a water application rate equivalent to 600 to 800 l/ha, with addition of 0.2% wetting agent. After the test plants have been left to stand in the greenhouse under optimal growth conditions for about 3 weeks, the action of the preparations is assessed visually in comparison to untreated controls (herbicidal action in percent (%): 100% activity=the plants have died, 0% activity=like control plants). […] The tables below illustrate, in an illustrative manner, the post-emergence herbicidal action of the compounds of the invention, the herbicidal activity being stated in percent.

SETVI [4] = assay: Pre-emergence herbicidal action against SETVI; type: in vivo, Setaria viridis; conditions: dosage 80 g/ha
Outline: as §2

MATIN [5] = assay: Pre-emergence herbicidal action against MATIN; type: in vivo, Matricaria inodora
Outline: as §2

VIOTR = assay: Pre-emergence herbicidal action against VIOTR; type: in vivo, Viola tricolor
Outline: as §2

ECHCG [6] = assay: Pre-emergence herbicidal action against ECHCG; type: in vivo, Echinochloa crus-galli; conditions: 80 g/ha
Outline: as §2

DIGSA [7] = assay: Pre-emergence herbicidal action against DIGSA; type: in vivo, Digitaria sanguinalis
Outline: as §2

ABUTH [8] = assay: Post-emergence herbicidal action against ABUTH; type: in vivo, Abutilon theophrasti; conditions: visual assessment about 3 weeks after treatment vs untreated controls
Outline: (§4)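 Herbicidal effect was scored visually in percent after about 3 weeks in the greenhouse. Plants had been raised in sandy loam and treated post-emergence at the one-leaf stage with formulated compound at 600 to 800 l/ha water plus 0.2% wetting agent.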

PHBPU = assay: Post-emergence herbicidal action against PHBPU; type: in vivo, Pharbitis purpurea; conditions: dosage 20 g/ha
Method: as §3

SETVI [9] = assay: Post-emergence herbicidal action against SETVI; type: in vivo, Setaria viridis
Method: as §3

MATIN [10] = assay: Post-emergence herbicidal action against MATIN; type: in vivo, Matricaria inodora; conditions: dosage 20 g/ha
Method: as §3

ALOMY = assay: Pre-emergence herbicidal action against ALOMY; type: in vivo, Alopecurus myosuroides; conditions: 80 g/ha, pre-emergence, scored visually after 3 weeks vs untreated controls (100% = plants have died, 0% = like control plants)
Text: as §1

DIGSA [11] = assay: Post-emergence herbicidal action against DIGSA; type: in vivo, Digitaria sanguinalis; conditions: 20 g/ha
Method: as §3

ECHCG [12] = assay: Post-emergence herbicidal action against ECHCG; type: in vivo, Echinochloa crus-galli
Outline: as §4

AVEFA = assay: Pre-emergence herbicidal action against AVEFA; type: in vivo, Avena fatua; conditions: 80 g/ha, pre-emergence
Text: as §1

[13] = 20 g/ha, scored visually after 3 weeks vs untreated controls, 100% = plants have died, 0% = like control plants
[14] = 80 g/ha, scored visually after 3 weeks vs untreated controls (100% = plants have died, 0% = like control plants)

Row | SMILES | Pre-emergence action against VERPE in % (VERPE; dosage 80 g/ha) [%] | Pre-emergence action against ABUTH (herbicidal activity) (ABUTH [1]) [%] | Pre-emergence action against AMARE in % (AMARE [2]; [13]) [%] | Pre-emergence action against AMARE in % (AMARE [2]; [14]) [%] | Post-emergence action at 20 g/ha against AMARE in % (AMARE [3]) [%] | Pre-emergence action against SETVI in % (SETVI [4]) [%] | Pre-emergence action against MATIN in % (MATIN [5]; dosage 20 g/ha) [%] | Pre-emergence action against MATIN in % (MATIN [5]; dosage 80 g/ha) [%] | Pre-emergence action against VIOTR in % (VIOTR; dosage 80 g/ha) [%] | Pre-emergence action against ECHCG in % (ECHCG [6]) [%] | Post-emergence action against ABUTH in % (ABUTH [8]; dosage 20 g/ha) [%] | Post-emergence action against PHBPU in % (PHBPU) [%] | Pre-emergence action against ALOMY (herbicidal activity) (ALOMY) [%] | Post-emergence action against ECHCG in % (ECHCG [12]; dosage 20 g/ha) [%] | also measured
1 | Cc1c(C(=O)Nc2nnnn2C)ccc(C(F)(F)F)c1C(=O)NCC#N [Example 1-36] | 90 | 100 | 100 | 100 | 100 |  |  |  |  |  |  |  |  |  | 
2 | Cn1nnnc1NC(=O)c1ccc(C(F)(F)F)c(C(=O)NCc2cccs2)c1Cl [Example 1-144] | 80 |  | 90 | 100 | 90 | 80 | 90 | 90 | 100 | 100 |  |  |  |  | Pre-emergence action against VIOTR in % (VIOTR; dosage 20 g/ha): 80%; Pre-emergence action against DIGSA in % (DIGSA [7]; dosage 20 g/ha): 90%; Pre-emergence action against DIGSA in % (DIGSA [7]; dosage 80 g/ha): 90%
3 | Cn1nnnc1NC(=O)c1ccc(C(F)F)c(C(=O)NCC#N)c1Cl [Example 1-158] | 80 |  | 100 | 100 | 90 |  |  |  | 90 |  | 80 |  |  |  | Pre-emergence action against VERPE in % (VERPE; dosage 20 g/ha): 80%
4 | CCn1nnnc1NC(=O)c1ccc(C(F)(F)F)c(C(=O)Nc2ccccc2)c1Cl [Example 2-143] | 80 | 100 |  | 100 |  |  | 90 | 100 | 80 |  | 80 | 80 |  |  | 
5 | CCn1nnnc1NC(=O)c1ccc(C(F)F)c(C(=O)NCC#N)c1Cl [Example 2-158] | 90 | 100 |  | 100 |  |  |  | 90 | 100 |  |  |  |  |  | Pre-emergence action against VERPE in % (VERPE; dosage 20 g/ha): 80%; Post-emergence action against SETVI in % (SETVI [9]; dosage 5 g/ha): 90%; Post-emergence action against SETVI in % (SETVI [9]; dosage 20 g/ha): 90%
6 | CCn1nnnc1NC(=O)c1ccc(C(F)F)c(C(=O)Nc2ccccc2)c1Cl [Example 2-161] | 80 | 100 | 90 | 100 | 100 |  | 80 | 90 | 100 |  | 80 | 80 |  |  | Pre-emergence action against ABUTH (herbicidal activity in percent) (ABUTH [1]): 90%; Post-emergence action against MATIN in % (MATIN [10]): 80%
7 | Cc1nnc(NC(=O)c2ccc(C(F)F)c(C(=O)NCC3CC3)c2C)o1 [Example 6-34] |  | 100 | 100 | 100 | 100 |  |  | 90 |  | 100 | 80 | 80 | 80 | 90 | Post-emergence action against ABUTH in % (ABUTH [8]; dosage 5 g/ha): 80%; Post-emergence action against DIGSA (DIGSA [11]): 80%; Post-emergence action against ECHCG in % (ECHCG [12]; dosage 5 g/ha): 80%; Pre-emergence action against DIGSA in % (DIGSA [7]; dosage 20 g/ha): 100%; Pre-emergence action against DIGSA in % (DIGSA [7]; dosage 80 g/ha): 100%; Post-emergence action against SETVI in % (SETVI [9]; dosage 20 g/ha): 90%
8 | Cc1nnc(NC(=O)c2ccc(C(F)F)c(C(=O)NCC(F)(F)F)c2Br)o1 [Example 6-168] |  | 100 | 90 | 100 | 100 | 90 | 80 | 90 |  | 90 |  |  | 80 | 80 | Pre-emergence action against AVEFA in % (AVEFA): 80%; Post-emergence action against ECHCG in % (ECHCG [12]; dosage 5 g/ha): 80%
9 | Cc1nnc(NC(=O)c2ccc(C(F)F)c(C(=O)NCc3cccs3)c2Cl)o1 [Example 6-264] | 90 |  | 80 | 100 | 80 | 80 |  |  |  |  |  |  |  |  | Post-emergence action against DIGSA (DIGSA [11]): 80%
10 | Cc1nnc(NC(=O)c2ccc(C(F)F)c(C(=O)NC(C)C3CC3)c2Br)o1 (centres unmarked) [Example 6-267] | 90 | 100 | 90 | 100 | 90 | 80 | 90 | 100 | 80 | 80 | 80 | 80 | 80 | 90 | Pre-emergence action against ABUTH (herbicidal activity in percent) (ABUTH [1]): 90%
